In brackets after ≈: the same amount, converted by molar mass. Several values for one entry are separate records, joined by “and”; a condition that tells them apart may be missing. Identical values can stand only once.
Tests used:
[1] = mdck_mdr1
[2] = human; liver_microsomes
[3] = not given; remark: listed apart in the source

Compound | Papp [1] | microsomal CLint [2] [µL/min/mg] | solubility kinetic | logD [3]
C=C[C@H]1CN2CC[C@H]1C[C@@H]2[C@@H](O)c1ccnc2ccc(OC)cc12 | 13.9 ×10⁻⁶ cm/s |  |  | 
CC(C)CNC(=O)c1cc(Cl)c(F)cc1NS(=O)(=O)c1ccc(Oc2ccccc2Cl)cc1 | 2.39 ×10⁻⁶ cm/s | 198 | 4 µM (≈ 2.05 µg/mL) | 
CC(C)c1nc2c(C(=O)Nc3cccc(CN)c3)cccc2[nH]1 | 3.84 ×10⁻⁶ cm/s |  | 316 µM (≈ 97.4 µg/mL) | 1.9
CC(C)n1cc2c(C(=O)Nc3ccc4c(c3)CNC4)cc(Cl)cc2n1 | 3.4 ×10⁻⁶ cm/s |  | 181 µM (≈ 64.2 µg/mL) | 1.6
CCc1cc(C(=O)Nc2cccc(CN)c2)sc1-c1ccc(Cl)cc1 | 0.995 ×10⁻⁶ cm/s |  | 7 µM (≈ 2.6 µg/mL) | 4.3
CO[C@H]1C[C@H](n2ncc3c(C(=O)Nc4ccc5c(c4)CNC5)cc(Cl)cc32)C1 | 1.6 ×10⁻⁶ cm/s |  | 340 µM (≈ 135 µg/mL) | 1.5
C[C@H]1O[C@@H](O[C@H]2[C@@H](O)C[C@H](O[C@H]3[C@@H](O)C[C@H](O[C@H]4CC[C@@]5(C)[C@H](CC[C@@H]6[C@@H]5C[C@@H](O)[C@]5(C)[C@@H](C7=CC(=O)OC7)CC[C@]65O)C4)O[C@@H]3C)O[C@@H]2C)C[C@H](O)[C@@H]1O | 0.6 ×10⁻⁶ cm/s |  |  | 
Cc1ccc(NC(=O)c2cc(Cl)cc(NC(=O)OCc3ccccc3)c2)cc1CN | 0.0873 ×10⁻⁶ cm/s |  |  | 
Clc1ccc2[nH]cc(Cc3ccc(-c4nn[nH]n4)cc3)c2c1 | 8.4 ×10⁻⁶ cm/s |  |  | 2.1
Cn1ncc2c(C(=O)Nc3ccc4c(c3)CNC4)cc(Br)cc21 | 4.66 ×10⁻⁶ cm/s |  | 392 µM (≈ 146 µg/mL) | 1
NCc1cc(Cl)cc(C(=O)Nc2ccc3c(c2)CNC3)c1 |  |  |  | 2
NCc1cccc(NC(=O)c2cc(Cl)cc(NC(=O)OCc3ccccc3)c2)c1 | 2.11 ×10⁻⁶ cm/s |  | 89 µM (≈ 36.5 µg/mL) | 2.7
NCc1cccc(NC(=O)c2cccn3cc(CN4CCCC4)nc23)c1 | 5.25 ×10⁻⁶ cm/s |  | 332 µM (≈ 116 µg/mL) | 0.2
O=C(NCC(F)(F)F)c1cc(Cl)c(F)cc1NS(=O)(=O)c1ccc(Oc2ccccc2Cl)cc1 | 2.4 ×10⁻⁶ cm/s | 70 | 14 µM (≈ 7.52 µg/mL) | 
O=C(Nc1cc(Cl)cc(-c2ccc3[nH]c(C(=O)O)cc3c2)c1)OCc1ccccc1 | 0.61 ×10⁻⁶ cm/s |  | 356 µM (≈ 150 µg/mL) | 3.7
O=C(Nc1cc(Cl)cc(C(=O)Nc2cccc(-c3nnn[nH]3)c2)c1)OCc1ccccc1 | 5.06 ×10⁻⁶ cm/s |  | 65 µM (≈ 29.2 µg/mL) | 3.7
O=C(Nc1cc(Cl)cc(C(=O)Nc2cccc(C3CCNCC3)c2)c1)OCc1ccccc1 | 1.8 ×10⁻⁶ cm/s |  | 126 µM (≈ 58.5 µg/mL) | 
O=C(Nc1cc(Cl)cc(C(=O)Nc2n[nH]c3c2CNC3)c1)OCc1ccccc1 | 1.44 ×10⁻⁶ cm/s |  | 26 µM (≈ 10.7 µg/mL) | 
O=C(Nc1ccc2c(c1)CNC2)c1cc(Cl)cc2c1CCC2 | 2.57 ×10⁻⁶ cm/s |  | 335 µM (≈ 105 µg/mL) | 1.8
O=C(O)COc1cccc(NC(=O)c2cc(Cl)cc(NC(=O)OCc3ccccc3)c2)c1 | 1.1 ×10⁻⁶ cm/s |  | 360 µM (≈ 164 µg/mL) | 1.8
O=C(O)Cn1ncc2cc(-c3cc(Cl)cc(NC(=O)OCc4ccccc4)c3)ccc21 | 5.12 ×10⁻⁶ cm/s |  | 131 µM (≈ 57.1 µg/mL) | 2.6

Compound | Papp [1] | microsomal CLint [2] [µL/min/mg] | solubility kinetic | logD [3]
O=C1Cc2c(cc(F)cc2C(=O)Nc2ccc3c(c2)CNC3)N1 | 2.9 ×10⁻⁶ cm/s |  | 368 µM (≈ 115 µg/mL) | -0.2
O=C1Cc2c(cccc2C(=O)Nc2ccc3c(c2)CNC3)N1 | 0.924 ×10⁻⁶ cm/s |  | 152 µM (≈ 44.6 µg/mL) | 0.3
O=C1Cc2cc(C(=O)Nc3ccc4c(c3)CNC4)ccc2N1 | 0.873 ×10⁻⁶ cm/s |  | 136 µM (≈ 39.9 µg/mL) | 
c1ccc2c(CN3CCC(c4c[nH]c5cccnc45)CC3)c[nH]c2c1 | 4.6 ×10⁻⁶ cm/s | 16 |  | 
c1ccc2sc(C3CCN(Cc4c[nH]c5ccccc45)CC3)nc2c1 | 5.82 ×10⁻⁶ cm/s | 38.1 | 119 µM (≈ 41.4 µg/mL) | 
C=CC[C@H](Nc1ccc(-c2nn[nH]n2)cc1)c1cc(Cl)cc(NC(=O)OCc2ccccc2)c1 (racemic) | 2.6 ×10⁻⁶ cm/s | 10.1 |  | 3.9
C=CC[C@H]1NCc2cc(NC(=O)c3cc(F)cc4[nH]ncc34)ccc21 (racemic) | 3.86 ×10⁻⁶ cm/s |  | 356 µM (≈ 120 µg/mL) | 1.7
CC(C)NC(=O)[C@H](Nc1ccc2c(c1)CNC2)c1cc(Cl)cc2[nH]ncc12 (racemic) | 0.963 ×10⁻⁶ cm/s |  | 311 µM (≈ 119 µg/mL) | 0.5
CCCCNC(=O)[C@H](Nc1ccc2c(c1)CNC2)c1cc(Cl)cc(C2CC2)c1 (racemic) | 0.7 ×10⁻⁶ cm/s |  | 379 µM (≈ 151 µg/mL) | 2.3
CNC(=O)[C@H](Nc1cc(CN)cc(-c2nn[nH]n2)c1)c1cc(Cl)cc(C2CC2)c1 (racemic) | 0.302 ×10⁻⁶ cm/s |  | 352 µM (≈ 145 µg/mL) | 1.5
CNC(=O)[C@H](Nc1cc(CN)cc(C(=O)O)c1)c1cc(Cl)cc(C2CC2)c1 (racemic) | 0.94 ×10⁻⁶ cm/s |  | 335 µM (≈ 130 µg/mL) | 0
CNC(=O)[C@H](Nc1ccc(-c2nnn[nH]2)cc1)c1cc(Cl)cc(C2CC2)c1 (racemic) | 1.6 ×10⁻⁶ cm/s |  |  | 1.1
CNC(=O)[C@H](Nc1ccc2c(c1)CNC2)c1cc(Cl)cc(C2CC2)c1 (racemic) | 1.5 ×10⁻⁶ cm/s |  | 358 µM (≈ 127 µg/mL) | 0.9
CNC(=O)[C@H](Nc1ccc2c(c1)CNC2)c1cc(Cl)cc2[nH]c(-c3ccccc3)nc12 (racemic) | 1.02 ×10⁻⁶ cm/s |  | 178 µM (≈ 76.9 µg/mL) | 1.8
CNC(=O)[C@H](Nc1cccc(-c2nn[nH]n2)c1)c1cc(Cl)cc2[nH]ncc12 (racemic) | 0.863 ×10⁻⁶ cm/s |  | 347 µM (≈ 133 µg/mL) | 0.3
COCc1cc(Cl)cc([C@H](Nc2ccc3c(c2)CNC3)C(=O)NCC(F)F)c1 (racemic) | 1.7 ×10⁻⁶ cm/s |  | 192 µM (≈ 78.7 µg/mL) | 0.2
COc1cc(C#N)cc([C@H](Nc2ccc3c(c2)CNC3)C(=O)NCC(F)F)c1 (racemic) | 0.5 ×10⁻⁶ cm/s |  | 381 µM (≈ 147 µg/mL) | -0.4
COc1cc(Cl)cc([C@H](Nc2ccc3c(c2)CNC3)C(=O)NCC(F)F)c1 (racemic) | 0.7 ×10⁻⁶ cm/s |  |  | 0.5
Cc1c(C(=O)Nc2cc([C@H]3CCOC3)ccn2)cc(C2CC2)n1C (racemic) | 27.2 ×10⁻⁶ cm/s | 57.7 |  | 3
Cc1cc([C@H](Nc2ccc3c(c2)CNC3)C(=O)NCC(F)F)cc(C(F)(F)F)c1 (racemic) | 0.7 ×10⁻⁶ cm/s |  |  | 1
Cc1nccn1C[C@H]1CCc2c(c3ccccc3n2C)C1=O (racemic) |  |  | 127 µM (≈ 37.3 µg/mL) | 

Compound | Papp [1] | microsomal CLint [2] [µL/min/mg] | solubility kinetic | logD [3]
N#CCCNC(=O)[C@H](Nc1ccc2c(c1)CNC2)c1cc(Cl)cc(C2CC2)c1 (racemic) | 0.5 ×10⁻⁶ cm/s |  | 374 µM (≈ 148 µg/mL) | 0.6
NCc1cc(C(=O)O)cc([C@@H]2C[C@H]2c2cc(Cl)cc(NC(=O)OCc3ccccc3)c2)c1 (racemic) | 0.819 ×10⁻⁶ cm/s |  | 52 µM (≈ 23.4 µg/mL) | 2.7
NCc1cccc(NC(=O)C[C@H](NC(=O)OCc2ccccc2)c2ccc(OCc3ccccc3)cc2)c1 (racemic) | 1.04 ×10⁻⁶ cm/s | 17 | 17 µM (≈ 8.66 µg/mL) | 
NCc1cccc(NC(=O)[C@H](NC(=O)OCc2ccccc2)C(C2CCC2)C2CCC2)c1 (racemic) | 1.6 ×10⁻⁶ cm/s | 12.6 |  | 2.5
NCc1cccc(NC(=O)[C@H](NC(=O)OCc2ccccc2)C2CCCCC2)c1 (racemic) | 1.58 ×10⁻⁶ cm/s | 5.29 |  | 2
O=C(NCC(F)F)[C@H](Nc1cc2c(cc1Br)CNC2)c1cc(Cl)cc(C2CC2)c1 (racemic) | 0.2 ×10⁻⁶ cm/s |  | 333 µM (≈ 161 µg/mL) | 2.9
O=C(NCC(F)F)[C@H](Nc1ccc2c(c1)CNC2)c1cc(Br)cc2nc[nH]c12 (racemic) | 0.5 ×10⁻⁶ cm/s |  |  | 0.4
O=C(NCC(F)F)[C@H](Nc1ccc2c(c1)CNC2)c1cc(Cl)cc(C2CC2)c1 (racemic) | 1.55 ×10⁻⁶ cm/s |  | 367 µM (≈ 149 µg/mL) | 1.6
O=C(NCC(F)F)[C@H](Nc1ccc2c(c1)CNC2)c1cc(Cl)cc2c1CCC2 (racemic) | 0.9 ×10⁻⁶ cm/s |  |  | 1.2
O=C(NCC(F)F)[C@H](Nc1ccc2c(c1)CNC2)c1cc(Cl)cc2ccoc12 (racemic) | 2.1 ×10⁻⁶ cm/s |  | 187 µM (≈ 75.9 µg/mL) | 0.6
O=C(NCC(F)F)[C@H](Nc1cnc2c(c1)CNC2)c1cc(Cl)cc(C2CC2)c1 (racemic) | 0.8 ×10⁻⁶ cm/s |  | 362 µM (≈ 147 µg/mL) | 1.5
O=C(NCCCF)[C@H](Nc1ccc2c(c1)CNC2)c1cc(Cl)cc(C2CC2)c1 (racemic) | 0.7 ×10⁻⁶ cm/s |  | 394 µM (≈ 158 µg/mL) | 1.2
O=C(Nc1cc(Cl)cc([C@H](Nc2cccc(-c3nn[nH]n3)c2)C(=O)NCc2ccccc2)c1)OCc1ccccc1 (racemic) | 0.6 ×10⁻⁶ cm/s |  |  | 3.7
O=C(Nc1cc(Cl)cc([C@H]2CN(Cc3ccccc3)C[C@@H]2c2cccc(-c3nn[nH]n3)c2)c1)OCc1ccccc1 (racemic) | 0.2 ×10⁻⁶ cm/s | 46.3 |  | 4.1
OCC#C[C@H](Nc1ccc2c(c1)CNC2)c1cc(Cl)cc2[nH]ncc12 (racemic) | 0.592 ×10⁻⁶ cm/s |  | 135 µM (≈ 47.6 µg/mL) | 0.5
CC(C)[C@H](Nc1ncnc2[nH]c(-c3cnn(C)c3C#N)cc12)c1ccc2c(n1)OCCO2 (single isomer, unassigned) | 13.7 ×10⁻⁶ cm/s and 14.6 ×10⁻⁶ cm/s |  | 53 µM and 50 µM | 3.7 and 3.9
CC(C)[C@H](Nc1ncnc2[nH]c(-c3cnn(CC(=O)N(C)C)c3)cc12)c1ccc2c(c1)S(=O)(=O)CCC2 (single isomer, unassigned) | 1.17 ×10⁻⁶ cm/s and 0.555 ×10⁻⁶ cm/s |  | 361 µM and 256 µM | 2.2
CC(C)[C@H](Nc1ncnc2[nH]c(C(=O)N[C@@H]3CCN(C)C3)cc12)c1ccc2c(c1)S(=O)(=O)CCC2 (single isomer, unassigned) |  |  | 366 µM and 392 µM | 1.4 and 1.6
CC(C)[C@H](Nc1ncnc2[nH]cc(C(=O)NC3CC3)c12)c1ccc2c(c1)S(=O)(=O)CCC2 (single isomer, unassigned) | 2.97 ×10⁻⁶ cm/s and 1.27 ×10⁻⁶ cm/s |  |  | 3.2 and 3
O=C(NCC(F)F)[C@H](Nc1ccc2c(c1)CNC2)c1cc(Cl)cc(C2CC2)c1 (single isomer, unassigned) | 1.3 ×10⁻⁶ cm/s and 1.9 ×10⁻⁶ cm/s |  | 326 µM and 139 µM | 1.3 and 1.4
